Where two headings read alike, the source gives them in different places. *1 amine or outer side, *2 acyl side, *3 side chain or, on linkers, in order; H or OH if unused. Where a SMILES comes first, the peptide text is derived from it. [ ]: non-standard residue; d: D form. X10 = CN(C(CC(C)(C)OCc1ccccc1)C(=O)[*:2])[*:1]; X3 = CC=CCC(C)C(O)C(C(=O)[*:2])N(C)[*:1]; X7 = CN(C(SCCCN1CCOCC1)C(=O)[*:2])[*:1]; NMeL = CN[CH](CC(C)C)C(=O)O; NMeV = CN[CH](C(=O)O)C(C)C; Abu = CC[CH](N)C(=O)O
Experiments:
[1] = Stability testing: epimerization of cyclosporin derivatives in methanol, monitored by HPLC; format: physicochemical
[2] = tested on: HCV replicon in cell line ET (luc-ubi-neo/ET), Huh7 human hepatoma; test: HCV subgenomic replicon assay, luciferase end point; format: cell-based; conditions: read-out: Antiviral activity EC50
[3] = HCV subgenomic replicon, cell line ET (luc-ubi-neo/ET) Huh7, luciferase end point
[4] = Table 13, HCV replicon luciferase
[5] = Table 16, HCV replicon luciferase

## C/C=C/C[C@@H](C)[C@@H](O)[C@H]1C(=O)N[C@@H](CC)C(=O)N(C)[C@H](SCCCN2CCOCC2)C(=O)N(C)[C@@H](CC(C)(C)OC)C(=O)N[C@@H](C(C)C)C(=O)N(C)[C@@H](CC(C)C)C(=O)N[C@@H](C)C(=O)N[C@H](C)C(=O)N(C)[C@@H](CC(C)C)C(=O)N(C)[C@@H](CC(C)C)C(=O)N(C)[C@@H](C(C)C)C(=O)N1C [drawing 1932]
[1]; Table 9, 2 hours
  Epimerization % in MeOH at 65° C.: 0%
[1]; Table 9, 4 hours
  Epimerization % in MeOH at 65° C.: 0%
[1]; Table 9, 10 hours
  Epimerization % in MeOH at 65° C.: 0%
[1]; Table 9, 22 hours
  Epimerization % in MeOH at 65° C.: 0%
[1]; Table 9, 30 hours
  Epimerization % in MeOH at 65° C.: 0%
[1]; Table 9, 38 hours
  Epimerization % in MeOH at 65° C.: 0%

## C/C=C/C[C@@H](C)[C@@H](O)[C@H]1C(=O)N[C@@H](CC)C(=O)N(C)[C@H](CSCCN(CC)CC)C(=O)N(C)[C@@H](CC(C)(C)O)C(=O)N[C@@H](C(C)C)C(=O)N(C)[C@@H](CC(C)C)C(=O)N[C@@H](C)C(=O)N[C@H](C)C(=O)N(C)[C@@H](CC(C)C)C(=O)N(C)[C@@H](CC(C)C)C(=O)N(C)[C@@H](C(C)C)C(=O)N1C (single isomer, unassigned; isomer b)
[2]; [3]
  EC50: 90 nM
[2]; [4]
  EC50: 30 nM

## C/C=C/C[C@@H](C)[C@@H](O)[C@H]1C(=O)N[C@@H](CC)C(=O)N(C)[C@H](CSCCN2CCN(C)CC2)C(=O)N(C)[C@@H](CC(C)(C)O)C(=O)N[C@@H](C(C)C)C(=O)N(C)[C@@H](CC(C)C)C(=O)N[C@@H](C)C(=O)N[C@H](C)C(=O)N(C)[C@@H](CC(C)C)C(=O)N(C)[C@@H](CC(C)C)C(=O)N(C)[C@@H](C(C)C)C(=O)N1C
[2]; Hepatitis C virus, Huh-7, Table 14, HCV replicon luciferase
  EC50: 30 nM

## CC=CCC(C)C(O)C1C(=O)NC(CC)C(=O)N(C)C(CSCCCN2CCN(CCC)CC2)C(=O)N(C)C(CC(C)(C)O)C(=O)NC(C(C)C)C(=O)N(C)C(CC(C)C)C(=O)NC(C)C(=O)NC(C)C(=O)N(C)C(CC(C)C)C(=O)N(C)C(CC(C)C)C(=O)N(C)C(C(C)C)C(=O)N1C (stereo not shown)
[2]; [5]
  EC50: 50 nM

## CC=CCC(C)C(O)C1C(=O)NC(CC)C(=O)N(C)C(CSCCCN2CCOCC2)C(=O)N(C)C(CC(C)(C)OC)C(=O)NC(C(C)C)C(=O)N(C)C(CC(C)C)C(=O)NC(C)C(=O)NC(C)C(=O)N(C)C(CC(C)C)C(=O)N(C)C(CC(C)C)C(=O)N(C)C(C(C)C)C(=O)N1C (stereo not shown)
[2]; [3]
  EC50: 100 nM

## CC=CCC(C)C(O)C1C(=O)NC(CC)C(=O)N(C)C(CSCCCN2CCN(CC)CC2)C(=O)N(C)C(CC(C)(C)O)C(=O)NC(C(C)C)C(=O)N(C)C(CC(C)C)C(=O)NC(C)C(=O)NC(C)C(=O)N(C)C(CC(C)C)C(=O)N(C)C(CC(C)C)C(=O)N(C)C(C(C)C)C(=O)N1C (stereo not shown)
[2]; [5]
  EC50: 50 nM

## CC=CCC(C)C(O)C1C(=O)NC(CC)C(=O)N(C)C(SCCCN2CCOCC2)C(=O)N(C)C(CC(C)(C)OCc2ccccc2)C(=O)NC(C(C)C)C(=O)N(C)C(CC(C)C)C(=O)NC(C)C(=O)NC(C)C(=O)N(C)C(CC(C)C)C(=O)N(C)C(CC(C)C)C(=O)N(C)C(C(C)C)C(=O)N1C [[(S)-(3-(N-Morpholino)propylthio-Sar]-3-[(γ-benzyloxy)-N-MeLeu]-4-cyclosporin] (cyclo([X3][Abu][X7][X10]V[NMeL]AA[NMeL][NMeL][NMeV]); configuration not given here)
[2]; [4]
  EC50: 280 nM

## CC=CCC(C)C(O)C1C(=O)NC(CC)C(=O)N(C)C(CSCCCCNCC(C)(C)C)C(=O)N(C)C(CC(C)(C)O)C(=O)NC(C(C)C)C(=O)N(C)C(CC(C)C)C(=O)NC(C)C(=O)NC(C)C(=O)N(C)C(CC(C)C)C(=O)N(C)C(CC(C)C)C(=O)N(C)C(C(C)C)C(=O)N1C (stereo not shown)
[2]; [5]
  EC50: 40 nM

## CC=CCC(C)C(O)C1C(=O)NC(CC)C(=O)N(C)C(CSCCN(C)C)C(=O)N(C)C(CC(C)(C)OC)C(=O)NC(C(C)C)C(=O)N(C)C(CC(C)C)C(=O)NC(C)C(=O)NC(C)C(=O)N(C)C(CC(C)C)C(=O)N(C)C(CC(C)C)C(=O)N(C)C(C(C)C)C(=O)N1C (stereo not shown)
[2]; [3]
  EC50: 100 nM

## CC=CCC(C)C(O)C1C(=O)NC(CC)C(=O)N(C)C(CSCCN2CCCC2)C(=O)N(C)C(CC(C)(C)O)C(=O)NC(C(C)C)C(=O)N(C)C(CC(C)C)C(=O)NC(C)C(=O)NC(C)C(=O)N(C)C(CC(C)C)C(=O)N(C)C(CC(C)C)C(=O)N(C)C(C(C)C)C(=O)N1C (stereo not shown)
[2]; [3]
  EC50: 110 nM
